# Data published in publication PMC11487390, “Design and Synthesis of 1,3-Diarylpyrazoles and Investigation of Their Cytotoxicity and Antiparasitic Profile” (International Journal of Molecular Sciences, 2024).
# Counter-ions that a name gives are not always drawn. Like-named read-outs stand apart in the source and are kept apart here.
# Assays:
# [1] = biological target: Toll-like receptor 9 (TLR9); set-up: method as in PMID 27537371; conditions: readout of a cellular assay, cited from earlier work
# [2] = tested on: T. b. brucei Squib 427 strain; assay: T. b. brucei growth assay (resazurin, 3 days); assay type: cell-based, Trypanosoma brucei brucei; conditions: read-out: T. b. bruc. (EC50), 3 days
# Summary of the method: (§1)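 Bloodstream parasites in HMI-9 with 10% FCS at 37 °C, 5% CO2, 1.5 × 10^4 (T. b. brucei) or 4 × 10^3 (T. b. rhodesiense) per well, exposed to 10 concentrations from 64 µM to 0.2 nM. After 3 days resazurin added, fluorescence read after 24 h or 6 h respectively; EC50 derived.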
# [3] = tested on: L. infantum MHOM/MA(BE)/67 strain; assay: L. infantum intracellular amastigote assay in PMM (Giemsa, 5 days); assay type: cell-based, Leishmania infantum
# Summary of the method: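 Primary mouse peritoneal macrophages were infected with spleen-derived amastigotes (3 × 10^4 PMM + 4.5 × 10^5 parasites/well), and compound was added 2 h post-infection. Ten concentrations (64 µM to 0.2 nM; DMSO <1%) were incubated 5 days at 37 °C, 5% CO2. Giemsa-stained amastigotes per macrophage were counted microscopically to give EC50.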
# [4] = tested on: Trypanosoma cruzi Tulahuen CL2 strain; assay: Intracellular T. cruzi assay in MRC-5 cells (β-galactosidase/CPRG, 7 days); assay type: cell-based; conditions: intracellular in MRC-5 cells
# Summary of the method: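 MRC-5SV2 fibroblasts infected with β-galactosidase-expressing T. cruzi Tulahuen CL2 and exposed to compounds (10 concentrations, 64 µM to 0.2 nM; DMSO <1%) for 7 days at 37 °C, 5% CO2. Parasite growth read by CPRG absorbance at 540 nm after 4 h versus untreated infected controls; EC50 calculated.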
# [5] = Cytotoxicity assay, MRC-5SV2 cells, resazurin, 3 days; assay type: cell-based; conditions: human, MRC-5SV2 human lung fibroblast cells, MRC-5 cells, highest concentration 64 µM
# Summary of the method: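 MRC-5SV2 fibroblasts (1.5 × 10^5 cells/mL, MEM, 5% FCS) exposed 3 days at 37 °C, 5% CO2 to 64–0.25 µM (4-fold), DMSO <1%. Viability by resazurin (10 µg mL^−1, 4 h) fluorescence; EC50 interpolated from flanking points around 50% inhibition.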
# [6] = tested on: T. b. rhodesiense STIB-900 strain; assay: T. b. rhodesiense growth assay (resazurin, 3 days); assay type: cell-based, Trypanosoma brucei rhodesiense; conditions: read-out: T. b. rhod. (EC50), 3 days
# Summary of the method: as §1
# [7] = tested on: primary mouse macrophages (PMMs); assay: Cytotoxicity against primary peritoneal mouse macrophages (PMM); assay type: cell-based; conditions: Macrophage
# Protocol: The series of final products (13–69) was investigated in vitro on the human fetal lung fibroblast cell line MRC-5 (Table 1) to assess cytotoxicity toward normal (i.e., non-malignant) human cells. […] As explained earlier, these are important pathogens for humans or cattle (T. b. brucei) and a persistent need for new therapeutics exists for these parasites. As a part of the antiparasitic tests, cytotoxicity against primary mouse macrophages (PMMs) was also evaluated. These murine cells serve as host cells for parasites in the L. infantum assay. Therefore, the murine macrophage assay not only offers additional cytotoxicological insight but is also essential to interpreting the readout of the L. infantum assay.
# The MRC-5SV2 human lung fibroblast cell line was cultured in MEM + Earle’s salts-medium, supplemented with 2 mM L-glutamine, 16.5 mM NaHCO3, and 5% inactivated fetal calf serum. For evaluating the antileishmanial activity, the L. infantum MHOM/MA(BE)/67 strain was used. This strain was maintained in a Golden hamster (Mesocricetus auratus). Amastigotes were collected from the spleen of an infected donor hamster using differential centrifugation. Primary peritoneal mouse macrophages were used as host cells and were collected 2 days after peritoneal stimulation with a 2% potato starch suspension. For the intracellular T. cruzi assays, the Tulahuen CL2 strain was used that expresses β-galactosidase. The strain was maintained in MRC-5SV2 cells in MEM medium. The T. b. brucei Squib 427 strain or T. b. rhodesiense STIB-900 strain was used for screening against the extracellular African trypanosomes. The strains were maintained in Hirumi’s Modified Iscove’s medium-9 (HMI-9), supplemented with 10% inactivated fetal calf serum. All cultures and assays were performed at 37 °C with 5% CO2.
# Primary peritoneal mouse macrophages (PMMs) were prepared in RPMI-1640 medium, supplemented with 2 mM L-glutamine, 16.5 mM NaHCO3, and 5% inactivated fetal calf serum. The macrophages are infected after 48 h with spleen-derived L. infantum amastigotes (3 × 10^4 PMM + 4.5 × 10^5 parasites/well). The compounds were added after 2 h of infection. After 5 days incubation, parasite burdens (mean number of amastigotes/macrophage) were assessed microscopically after staining with a 10% Giemsa solution and EC50 values were calculated.
# [8] = Trypanosoma cruzi, TULAHUEN, MRC5, 168 h
# [9] = Leishmania infantum, 120 h, amastigotes in PMM, 5 days, read-out: L. inf. (EC50)
# [10] = Trypanosoma brucei, RHODESIENSE, 72 h
SMILES,EC50 ([1]; read-out: EC50 for TLR9 antagonism),EC50 [2],EC50 ([2]; listed as 26/HIT 8),"EC50 ([3]; Leishmania infantum, 120 h, read-out: L. inf. (EC50, µM), amastigotes in PMM, 5 days)","EC50 ([3]; read-out: L. inf. (EC50), amastigotes in PMM, 5 days)","EC50 [4, 8]",EC50 [4],EC50 at 3 days [5],EC50 [6],EC50 ([6]; listed as 26/HIT 8),EC50 [7],EC50 for TLR9 antagonism [1],"EC50 ([2]; Trypanosoma brucei, 72 h)","EC50 [3, 9]","EC50 [6, 10]"
"c1ccc(-n2cc(CNCCN3CCCC3)c(-c3ccc4c(c3)OCCO4)n2)cc1 [Compound 26, N-((3-(2,3-dihydrobenzo[b][1,4]dioxin-6-yl)-1-phenyl-1H-pyrazol-4-yl)methyl)-2-(pyrrolidin-1-yl)ethan-1-amine dihydrochloride]",3.16 µM,1.52 µM,< 10 µM,< 10 µM,8.3 µM,< 10 µM,7.92 µM,21.7 µM,1.75 µM,< 10 µM,32 µM,,,,
"CN(C)CCCNCc1cn(-c2ccccc2)nc1-c1ccc2c(c1)OCCO2.Cl.Cl [Compound 29, N^1-((3-(2,3-dihydrobenzo[b][1,4]dioxin-6-yl)-1-phenyl-1H-pyrazol-4-yl)methyl)-N^3,N^3-dimethylpropane-1,3-diamine dihydrochloride]",,,,,,,,5.14 µM,,,,grossly comparable potency,,,
"CNC(=O)c1cc(Oc2ccc(NC(=O)c3cn(-c4ccccc4)nc3-c3ccc4c(c3)OCCO4)cc2)ccn1 [Compound 38, 4-(4-(3-(2,3-dihydrobenzo[b][1,4]dioxin-6-yl)-1-phenyl-1H-pyrazole-4-carboxamido)phenoxy)-N-methylpicolinamide]",,,,,,> 64 µM,,6.35 µM,,,> 64 µM,,8 µM,> 64 µM,1.75 µM
"O=C(c1cn(-c2ccccc2)nc1-c1ccc2c(c1)OCCO2)N1CCCC1 [Compound 39, (3-(2,3-dihydrobenzo[b][1,4]dioxin-6-yl)-1-phenyl-1H-pyrazol-4-yl)(pyrrolidin-1-yl)methanone]",,,,,,8.8 µM,,23.2 µM,,,> 64 µM,,> 64 µM,38.1 µM,37.6 µM
"O=C(c1cn(-c2ccccc2)nc1-c1ccc2c(c1)OCCO2)N1CCOCC1 [Compound 40, (3-(2,3-dihydrobenzo[b][1,4]dioxin-6-yl)-1-phenyl-1H-pyrazol-4-yl)(morpholino)methanone]",,,,,,> 64 µM,,> 64 µM,,,> 64 µM,,> 64 µM,> 64 µM,> 64 µM
